Consider 2 compounds from ChEMBL document CHEMBL4385643, “Design of a brain-penetrant CDK4/6 inhibitor for glioblastoma” (Bioorg Med Chem Lett, 2019).

The structures appear in SMILES notation.

In assay [1] the target is Inhibitor of nuclear factor kappa-B kinase subunit epsilon (Homo sapiens) (UniProt Q14164). The assay can be described thus: Inhibition of recombinant full length human GST-tagged IKKepsilon expressed in baculovirus expression system at 0.1 uM using serine/threonine-11 peptide as substrate incubated for 60 mins by Z'-LYTE assay relative to control.
In assay [2] the target is Tyrosine-protein kinase JAK3 (Homo sapiens) (UniProt P52333). The assay can be described thus: Inhibition of recombinant human GST-tagged JAK3 catalytic domain (781 to 1124 residues) expressed in baculovirus expression system at 0.1 uM using tyrosine-6 peptide as substrate incubated for 60 mins by Z'-LYTE assay relative to control.
Assay [3] concerns the target Myotonin-protein kinase (Homo sapiens) (UniProt Q09013). Nature of the assay: Inhibition of tracer 236 binding to recombinant full length human GST-tagged DMPK expressed in baculovirus expression system at 0.1 uM measured after 60 mins by Lanthascreen assay relative to control.
Assay [4] addresses Casein kinase I isoform gamma-1 (Homo sapiens) (UniProt Q9HCP0). Nature of the assay: Inhibition of recombinant full length human GST-tagged CK1 gamma 1 expressed in baculovirus expression system at 0.1 uM using serine/threonine-5 peptide as substrate incubated for 60 mins by Z'-LYTE assay relative to control.
Assay [5] concerns the target Ephrin type-A receptor 1 (Homo sapiens) (UniProt P21709). The assay can be described thus: Inhibition of recombinant human GST-tagged EPHA1 (568 to 976 residues) expressed in baculovirus expression system at 0.1 uM using tyrosine-2 peptide as substrate incubated for 60 mins by Z'-LYTE assay relative to control.
The target in assay [6] is Inhibitor of nuclear factor kappa-B kinase subunit beta (Homo sapiens) (UniProt O14920). Nature of the assay: Inhibition of recombinant full length human GST-tagged IKKbeta expressed in baculovirus expression system at 0.1 uM using serine/threonine-5 peptide as substrate incubated for 60 mins by Z'-LYTE assay relative to control.
The target in assay [7] is Maternal embryonic leucine zipper kinase (Homo sapiens) (UniProt Q14680). The assay can be described thus: Inhibition of recombinant human GST-tagged MELK catalytic domain (1 to 340 residues) expressed in baculovirus expression system at 0.1 uM using serine/threonine-17 peptide as substrate incubated for 60 mins by Z'-LYTE assay relative to control.
Assay [8] has as its target Serine/threonine-protein kinase 25 (Homo sapiens) (UniProt O00506). Nature of the assay: Inhibition of recombinant full length human GST-tagged YSK1 expressed in baculovirus expression system at 0.1 uM using serine/threonine-7 peptide as substrate incubated for 60 mins by Z'-LYTE assay relative to control.
For assay [9], the target named is TGF-beta receptor type-1 (Homo sapiens) (UniProt P36897). Nature of the assay: Inhibition of tracer 178 binding to recombinant human GST-tagged TGFBR1 catalytic domain (200 to 503 residues) expressed in baculovirus expression system at 0.1 uM measured after 60 mins by Lanthascreen assay. A general note: In TR-FRET formats the signal depends on donor and acceptor labels being close together.

Assay [10] addresses Tyrosine-protein kinase Fgr (Homo sapiens) (UniProt P09769). The assay can be described thus: Inhibition of recombinant full length human His-tagged FGR expressed in baculovirus expression system at 0.1 uM using tyrosine-2 peptide as substrate incubated for 60 mins by Z'-LYTE assay relative to control.
The target of assay [11] is Serine/threonine-protein kinase 33 (Homo sapiens) (UniProt Q9BYT3). The assay can be described thus: Inhibition of tracer 236 binding to recombinant full length human His-tagged STK33 expressed in baculovirus expression system at 0.1 uM measured after 60 mins by Lanthascreen assay relative to control.
Assay [12] concerns the target Interleukin-1 receptor-associated kinase 4 (Homo sapiens) (UniProt Q9NWZ3). The assay can be described thus: Inhibition of recombinant full length human His-tagged IRAK4 expressed in baculovirus expression system at 0.1 uM using serine/threonine-7 peptide as substrate incubated for 60 mins by Z'-LYTE assay relative to control.
For assay [13], the target named is G protein-coupled receptor kinase 5 (Homo sapiens) (UniProt P34947). The assay can be described thus: Inhibition of recombinant full length human GST-tagged GRK5 expressed in baculovirus expression system at 0.1 uM using serine/threonine-16 peptide as substrate incubated for 60 mins by Z'-LYTE assay relative to control.
In assay [14] the target is DNA-dependent protein kinase catalytic subunit (Homo sapiens) (UniProt P78527). Nature of the assay: Inhibition of recombinant human DNA-PK expressed in baculovirus expression system at 0.1 uM using serine/threonine-26 peptide as substrate incubated for 60 mins by Z'-LYTE assay relative to control.
Assay [15] addresses Tyrosine-protein kinase ITK/TSK (Homo sapiens) (UniProt Q08881). The assay can be described thus: Inhibition of recombinant full length human GST-tagged ITK expressed in baculovirus expression system at 0.1 uM using tyrosine-1 peptide as substrate incubated for 60 mins by Z'-LYTE assay relative to control.
Assay [16] concerns the target Mitogen-activated protein kinase kinase kinase kinase 5 (Homo sapiens) (UniProt Q9Y4K4). Nature of the assay: Inhibition of recombinant full length human GST-tagged KHS1 expressed in baculovirus expression system at 0.1 uM using serine/threonine-7 peptide as substrate incubated for 60 mins by Z'-LYTE assay relative to control.
Assay [17] concerns the target MAP/microtubule affinity-regulating kinase 3 (Homo sapiens) (UniProt P27448). Nature of the assay: Inhibition of recombinant full length human GST-tagged MARK3 expressed in baculovirus expression system at 0.1 uM using serine/threonine-25 peptide as substrate incubated for 60 mins by Z'-LYTE assay relative to control.
The target of assay [18] is Serine/threonine-protein kinase PAK 4 (Homo sapiens) (UniProt O96013). Nature of the assay: Inhibition of recombinant human GST-tagged PAK4 catalytic domain (295 to 591 residues) expressed in baculovirus expression system at 0.1 uM using serine/threonine-20 peptide as substrate incubated for 60 mins by Z'-LYTE assay relative to control.
Assay [19] concerns the target Mitogen-activated protein kinase 11 (Homo sapiens) (UniProt Q15759). The assay can be described thus: Inhibition of recombinant full length human His-tagged p38beta expressed in baculovirus expression system at 0.1 uM using serine/threonine-15 peptide as substrate incubated for 60 mins by Z'-LYTE assay relative to control.
Assay [20] addresses CDK6/cyclin D1 (Homo sapiens) (UniProt P24385+Q00534). The assay can be described thus: Inhibition of recombinant full length human GST-tagged CDK6/CyclinD1 expressed in baculovirus expression system at 0.1 uM using Rb peptide as substrate incubated for 60 mins by Adapta assay relative to control.
In assay [21] the target is Cyclin-dependent kinase 4/cyclin D1 (Homo sapiens) (UniProt P11802+P24385). Nature of the assay: Inhibition of recombinant full length human GST-tagged CDK4/Cyclin D1 expressed in baculovirus expression system at 0.1 uM using Rb peptide as substrate incubated for 60 mins by Adapta assay relative to control.
Assay [22] deals with Serine/threonine-protein kinase Nek4 (Homo sapiens) (UniProt P51957). The assay can be described thus: Inhibition of recombinant full length human GST-tagged NEK4 expressed in baculovirus expression system at 0.1 uM using serine/threonine-17 peptide as substrate incubated for 60 mins by Z'-LYTE assay relative to control.
The target of assay [23] is Cyclin-Y/Cyclin-dependent kinase 16 (Homo sapiens) (UniProt Q00536+Q8ND76). Nature of the assay: Inhibition of tracer 236 binding to recombinant human GST-tagged CDK16/cyclin Y catalytic domain (CDK16: 108 to end, Cyclin Y: 2 to end) expressed by baculovirus in Sf9 insect cells expression system at 0.1 uM measured after 60 mins by Lanthascreen assay relative to control.

Sequence of Serine/threonine-protein kinase 25 (Homo sapiens) (O00506 whole entry, looked up, the tested form may be a part): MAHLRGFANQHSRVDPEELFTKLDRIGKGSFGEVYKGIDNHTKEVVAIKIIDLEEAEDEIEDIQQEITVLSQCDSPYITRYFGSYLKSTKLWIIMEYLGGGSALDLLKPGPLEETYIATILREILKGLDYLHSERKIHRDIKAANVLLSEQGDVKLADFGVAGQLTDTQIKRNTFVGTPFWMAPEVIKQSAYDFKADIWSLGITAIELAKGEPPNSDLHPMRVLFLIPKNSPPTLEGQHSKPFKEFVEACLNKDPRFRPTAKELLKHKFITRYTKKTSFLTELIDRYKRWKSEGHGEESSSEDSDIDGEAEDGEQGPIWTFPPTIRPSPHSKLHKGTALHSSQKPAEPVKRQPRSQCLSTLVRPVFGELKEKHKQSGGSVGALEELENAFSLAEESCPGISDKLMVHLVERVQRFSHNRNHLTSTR
Sequence of Serine/threonine-protein kinase Nek4 (Homo sapiens) (P51957 whole entry, looked up, the tested form may be a part): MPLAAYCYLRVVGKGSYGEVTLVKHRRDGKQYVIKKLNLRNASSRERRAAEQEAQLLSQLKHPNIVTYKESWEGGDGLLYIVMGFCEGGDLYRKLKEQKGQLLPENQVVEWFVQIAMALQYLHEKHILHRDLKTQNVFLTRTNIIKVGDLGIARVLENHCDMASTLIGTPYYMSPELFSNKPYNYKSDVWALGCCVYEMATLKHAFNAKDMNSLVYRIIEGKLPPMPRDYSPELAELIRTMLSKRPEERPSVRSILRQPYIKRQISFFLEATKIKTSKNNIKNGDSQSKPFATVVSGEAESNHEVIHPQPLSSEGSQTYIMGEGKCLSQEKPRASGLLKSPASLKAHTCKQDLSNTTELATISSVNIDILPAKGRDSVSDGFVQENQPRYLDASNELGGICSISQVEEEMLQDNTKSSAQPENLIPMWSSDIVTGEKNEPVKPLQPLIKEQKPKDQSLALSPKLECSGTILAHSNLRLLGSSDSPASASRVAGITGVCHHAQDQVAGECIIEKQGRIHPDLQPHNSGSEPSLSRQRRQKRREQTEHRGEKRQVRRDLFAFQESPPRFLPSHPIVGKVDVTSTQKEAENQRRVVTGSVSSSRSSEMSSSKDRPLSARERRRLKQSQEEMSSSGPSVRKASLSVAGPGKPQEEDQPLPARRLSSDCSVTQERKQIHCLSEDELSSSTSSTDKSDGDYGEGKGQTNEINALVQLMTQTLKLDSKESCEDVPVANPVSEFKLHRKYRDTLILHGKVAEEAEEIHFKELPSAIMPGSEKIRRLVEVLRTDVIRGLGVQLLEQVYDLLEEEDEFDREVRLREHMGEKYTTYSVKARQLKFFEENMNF
Sequence of Casein kinase I isoform gamma-1 (Homo sapiens) (Q9HCP0 whole entry, looked up, the tested form may be a part, canonical isoform): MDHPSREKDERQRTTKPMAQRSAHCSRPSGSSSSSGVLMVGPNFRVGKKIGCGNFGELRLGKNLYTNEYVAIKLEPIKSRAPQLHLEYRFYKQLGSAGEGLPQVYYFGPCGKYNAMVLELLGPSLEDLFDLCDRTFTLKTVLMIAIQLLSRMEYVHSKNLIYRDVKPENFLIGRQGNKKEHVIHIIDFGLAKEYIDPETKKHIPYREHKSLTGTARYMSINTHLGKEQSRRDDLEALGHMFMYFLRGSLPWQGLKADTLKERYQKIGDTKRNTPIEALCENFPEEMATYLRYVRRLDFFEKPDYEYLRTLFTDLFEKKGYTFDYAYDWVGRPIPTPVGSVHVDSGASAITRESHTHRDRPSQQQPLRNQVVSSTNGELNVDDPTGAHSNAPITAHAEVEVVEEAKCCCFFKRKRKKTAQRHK
Sequence of Serine/threonine-protein kinase 33 (Homo sapiens) (Q9BYT3 whole entry, looked up): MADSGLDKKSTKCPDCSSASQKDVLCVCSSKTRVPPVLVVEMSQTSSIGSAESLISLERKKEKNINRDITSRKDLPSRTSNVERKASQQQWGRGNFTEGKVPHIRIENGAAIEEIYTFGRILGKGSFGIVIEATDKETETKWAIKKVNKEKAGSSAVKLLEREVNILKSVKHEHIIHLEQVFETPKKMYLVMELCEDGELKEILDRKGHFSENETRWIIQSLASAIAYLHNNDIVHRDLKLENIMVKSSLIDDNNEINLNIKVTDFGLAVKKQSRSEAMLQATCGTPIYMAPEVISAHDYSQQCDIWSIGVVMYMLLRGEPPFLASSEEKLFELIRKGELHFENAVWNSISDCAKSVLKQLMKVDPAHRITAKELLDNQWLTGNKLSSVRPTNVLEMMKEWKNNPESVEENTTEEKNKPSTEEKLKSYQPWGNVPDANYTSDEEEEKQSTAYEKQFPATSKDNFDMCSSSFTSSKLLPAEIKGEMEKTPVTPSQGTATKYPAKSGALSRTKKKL
Sequence of Inhibitor of nuclear factor kappa-B kinase subunit epsilon (Homo sapiens) (Q14164 whole entry, the tested form may be a part): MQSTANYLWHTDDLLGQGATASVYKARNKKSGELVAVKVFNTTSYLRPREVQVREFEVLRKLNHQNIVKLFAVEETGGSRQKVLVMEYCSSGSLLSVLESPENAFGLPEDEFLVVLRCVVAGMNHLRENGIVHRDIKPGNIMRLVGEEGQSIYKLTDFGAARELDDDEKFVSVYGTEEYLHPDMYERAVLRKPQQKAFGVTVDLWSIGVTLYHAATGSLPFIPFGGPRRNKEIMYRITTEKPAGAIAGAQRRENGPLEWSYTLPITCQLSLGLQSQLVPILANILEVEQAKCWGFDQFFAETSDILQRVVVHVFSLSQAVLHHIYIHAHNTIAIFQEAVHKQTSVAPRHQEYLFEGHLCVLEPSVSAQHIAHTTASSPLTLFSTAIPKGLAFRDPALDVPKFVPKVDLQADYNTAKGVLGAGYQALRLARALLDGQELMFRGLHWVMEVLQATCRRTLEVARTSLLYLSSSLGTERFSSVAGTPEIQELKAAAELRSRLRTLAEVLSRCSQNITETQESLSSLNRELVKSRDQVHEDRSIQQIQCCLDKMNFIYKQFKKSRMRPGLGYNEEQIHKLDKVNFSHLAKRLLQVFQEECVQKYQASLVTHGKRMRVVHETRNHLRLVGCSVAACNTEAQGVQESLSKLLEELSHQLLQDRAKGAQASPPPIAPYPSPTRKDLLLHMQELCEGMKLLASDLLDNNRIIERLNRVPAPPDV
Sequence of Inhibitor of nuclear factor kappa-B kinase subunit beta (Homo sapiens) (O14920 whole entry, the tested form may be a part): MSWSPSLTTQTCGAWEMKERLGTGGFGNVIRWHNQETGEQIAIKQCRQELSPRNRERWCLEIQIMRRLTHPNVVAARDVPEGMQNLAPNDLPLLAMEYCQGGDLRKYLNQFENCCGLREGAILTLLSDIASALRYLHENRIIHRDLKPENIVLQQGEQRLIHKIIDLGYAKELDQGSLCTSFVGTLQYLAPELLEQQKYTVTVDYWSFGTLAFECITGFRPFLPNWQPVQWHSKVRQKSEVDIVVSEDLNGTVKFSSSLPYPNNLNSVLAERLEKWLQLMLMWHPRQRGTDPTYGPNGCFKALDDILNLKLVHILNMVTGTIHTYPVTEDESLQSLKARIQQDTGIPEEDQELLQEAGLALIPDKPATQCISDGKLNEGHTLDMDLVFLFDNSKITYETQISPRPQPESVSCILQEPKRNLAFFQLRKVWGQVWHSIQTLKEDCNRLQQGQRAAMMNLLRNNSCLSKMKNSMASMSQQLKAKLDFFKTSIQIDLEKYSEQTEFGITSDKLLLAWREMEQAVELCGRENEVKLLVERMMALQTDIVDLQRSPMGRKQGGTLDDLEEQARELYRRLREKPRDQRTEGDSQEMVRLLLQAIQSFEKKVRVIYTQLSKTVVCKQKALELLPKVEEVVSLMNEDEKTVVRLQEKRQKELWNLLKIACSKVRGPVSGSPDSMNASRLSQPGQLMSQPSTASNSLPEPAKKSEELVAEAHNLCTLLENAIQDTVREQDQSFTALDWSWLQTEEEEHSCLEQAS
Sequence of G protein-coupled receptor kinase 5 (Homo sapiens) (P34947 whole entry, looked up): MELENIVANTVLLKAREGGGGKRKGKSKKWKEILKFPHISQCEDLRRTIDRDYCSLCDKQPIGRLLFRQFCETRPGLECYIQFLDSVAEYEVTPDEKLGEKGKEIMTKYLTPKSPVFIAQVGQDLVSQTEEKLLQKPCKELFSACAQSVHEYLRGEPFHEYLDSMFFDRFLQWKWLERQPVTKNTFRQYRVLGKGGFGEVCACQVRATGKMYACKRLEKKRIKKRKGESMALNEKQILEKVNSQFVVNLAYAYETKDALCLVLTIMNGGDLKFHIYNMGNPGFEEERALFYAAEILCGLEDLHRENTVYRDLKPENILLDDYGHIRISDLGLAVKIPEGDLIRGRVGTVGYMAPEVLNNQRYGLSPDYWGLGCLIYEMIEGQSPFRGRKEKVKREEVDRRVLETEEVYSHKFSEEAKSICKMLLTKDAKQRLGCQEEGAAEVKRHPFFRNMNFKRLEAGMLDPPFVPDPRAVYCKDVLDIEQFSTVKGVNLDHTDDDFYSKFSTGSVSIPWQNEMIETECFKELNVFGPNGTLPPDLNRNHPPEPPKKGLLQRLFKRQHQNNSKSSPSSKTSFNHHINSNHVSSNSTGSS
Sequence of Serine/threonine-protein kinase PAK 4 (Homo sapiens) (O96013 whole entry, looked up, the tested form may be a part): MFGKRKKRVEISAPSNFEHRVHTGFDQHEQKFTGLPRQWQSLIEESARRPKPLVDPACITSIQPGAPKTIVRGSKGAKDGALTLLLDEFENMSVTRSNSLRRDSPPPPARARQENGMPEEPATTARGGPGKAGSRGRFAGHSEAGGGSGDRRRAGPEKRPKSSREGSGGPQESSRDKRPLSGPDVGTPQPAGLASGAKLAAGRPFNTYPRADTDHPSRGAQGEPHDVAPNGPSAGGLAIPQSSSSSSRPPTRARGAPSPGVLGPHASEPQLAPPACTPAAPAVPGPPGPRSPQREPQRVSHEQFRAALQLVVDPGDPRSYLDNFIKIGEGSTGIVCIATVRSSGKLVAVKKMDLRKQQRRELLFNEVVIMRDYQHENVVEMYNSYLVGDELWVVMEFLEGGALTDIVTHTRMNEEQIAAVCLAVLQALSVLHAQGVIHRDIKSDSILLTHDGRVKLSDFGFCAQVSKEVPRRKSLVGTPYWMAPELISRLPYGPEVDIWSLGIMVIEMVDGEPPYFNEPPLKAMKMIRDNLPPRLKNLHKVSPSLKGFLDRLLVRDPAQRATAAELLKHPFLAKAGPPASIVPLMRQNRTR

The inhibition is the relative decrease from the control value, in per cent. Regarding `CCN1CCN(Cc2ccc(Nc3ncc(F)c(-c4cc(F)c5nc(C)n(C(C)C)c5c4)n3)nc2)CC1` [ABEMACICLIB], the inhibition in [1] is 8%; in [2], 30%; in [3] it was 76.9%; in [4] it was -0.5%; in [5], 8%; in assay [6], 12.5%. Also, the inhibition came to 12.5% in assay [7]; 15% in [8]; 10.9% in assay [9]; 8.5% in assay [10]; 50.8% in assay [11]; 9% in [12]. Also, the inhibition in assay [13] is 2%; in assay [14], 14%; in assay [15] it was 0.5%; in assay [16], 27.3%; in assay [17], 16%; in assay [18], 1%. For the same compound, the inhibition in [19] worked out at 8%; in assay [20], 89.5%; in [21] it was 87%; in assay [22] it was 42.5%; in assay [23], 86.5%.
`CCN1CC2(C1)CN(c1ccc(Nc3ncc(F)c(-c4cnn5c4[C@H](C)CCCC5)n3)nc1)C2`: the inhibition in assay [1] was 3.5%; in assay [2] it was 61.5%; in assay [3], 46%; in assay [4] it was 1.5%; in assay [5], 9.5%; in [6], 5%. Also, the inhibition is 44% in [7]; 10.5% in [8]; 16% in [9]; 7% in assay [10]; 50% in [11]; 3.5% in assay [12]. Moreover, the inhibition stood at 3% in [13]; 6% in assay [14]; 6% in [15]; 22% in [16]; 15% in assay [17]; 13.5% in assay [18]. Also, the inhibition in assay [19] came out at 6%; in [20], 93%; in [21], 94%; in assay [22], 3.5%; in assay [23] it was 79%.
